“And” between values parts separate entries of the source, which are not always exact repeats. Identical values can stand only once.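 Grown in 96-well plates, cells were treated for 48 hours with each compound at five concentrations. Insufficient inhibition: endpoint recorded as highest concentration tested. GI50: concentration for 50% inhibition of growth. TGI: concentration producing complete growth inhibition.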
Assays:
Assay in all cases: NCI tumour cell line growth inhibition, 48 h
[1] = system: SN12C renal
[2] = system: SF-268 CNS
[3] = system: U251 CNS
[4] = system: LOX IMVI melanoma
[5] = system: NCI-H460 lung
[6] = system: UACC-257 melanoma
[7] = system: A498 renal
[8] = system: UACC-62 melanoma
[9] = system: NCI-H226 lung
[10] = system: RXF 393 renal

| Structure (SMILES) | GI50 [1] | TGI [1] | GI50 [2] | TGI [2] | GI50 [3] | TGI [3] | GI50 [4] | TGI [4] | GI50 [5] | TGI [5] | GI50 [6] | TGI [6] | GI50 [7] | TGI [7] | GI50 [8] | TGI [8] | GI50 [9] | TGI [9] | GI50 [10] | TGI [10] |
| --- | --- | --- | --- | --- | --- | --- | --- | --- | --- | --- | --- | --- | --- | --- | --- | --- | --- | --- | --- | --- |
| Cc1cc(-c2nc(-c3ccc(OC(F)(F)F)cc3)no2)nn1Cc1ccnc(N2CCN(C3CC3)CC2)c1 | > 34.1 µM | > 100 µM | > 42.7 µM | > 100 µM | 5.52 µM | > 100 µM | 0.272 µM | > 45.6 µM | 4.94 µM | 55.3 µM | 2.84 µM | > 55.4 µM | 0.482 µM | > 100 µM | 4.23 µM | > 49.1 µM | 12.2 µM | > 100 µM | > 27.9 µM | > 75.6 µM |
| O=C1/C(=C/c2ccccc2)CCC/C1=C\c1ccccc1 | 7.33 µM | 12.6 µM and 32.8 µM and 34.9 µM | 6.72 µM and 5.81 µM | 13.3 µM and 29.5 µM and 20.3 µM | 3.33 µM | 11.5 µM and 14.8 µM and 12.9 µM | 3.83 µM and 1.52 µM | 8.65 µM and 5.92 µM and 3.64 µM | 6.09 µM and 19.8 µM | 12 µM and 34 µM and 46.8 µM | 6.3 µM and 13.1 µM | 11.7 µM and 39.8 µM and 33.3 µM | – | 29.8 µM and 29.2 µM | 6.34 µM | 11.5 µM and 28.4 µM and 29.9 µM | 7.83 µM and 12.5 µM | 13.8 µM and 35.1 µM and 33 µM | 7.73 µM and 4.27 µM | 13.4 µM and 32.3 µM and 17.8 µM |
| CC(=O)OC[C@]12CC[C@@H]([C@@H](C)C(N)=O)[C@@H]1[C@H]1CC[C@@H]3[C@@]4(C)CC[C@H](OC(C)=O)C(C)(C)[C@@H]4CC[C@@]3(C)[C@]1(C)CC2 | 5.65 µM | 18.8 µM | 6.95 µM | 22.3 µM | 5.1 µM | 20.4 µM | 10.2 µM | 24.4 µM | 13.4 µM | 30.9 µM | 4.83 µM | 22.7 µM | 12.8 µM | 25.6 µM | 5.46 µM | 19.5 µM | 7.28 µM | 23.9 µM | 4.28 µM | 16.3 µM |
| O=C1c2ccccc2-c2c1c1ccccc1c(=O)n2CCCN1CCN(CCCn2c3c(c4ccccc4c2=O)C(=O)c2ccccc2-3)CC1 | > 39.2 µM | > 92 µM | 25 µM | > 100 µM | 5.44 µM | 18.7 µM | > 88.3 µM | > 100 µM | > 68 µM | > 100 µM | > 100 µM | > 100 µM | > 55.3 µM | > 100 µM | > 100 µM | > 100 µM | > 76.5 µM | > 100 µM | 46.2 µM | > 100 µM |
| COC(=O)[C@@]1(C)CC[C@]2(C)CC[C@]3(C)C4=CC=C5C(=CC(=O)C(O)=C5C)[C@]4(C)CC[C@@]3(C)[C@@H]2C1 | 0.201 µM | 0.507 µM | 0.341 µM | 1.23 µM | 0.173 µM | 0.321 µM | 0.174 µM | 0.325 µM | 0.274 µM | 0.796 µM | 0.279 µM | 0.767 µM | 0.333 µM | 0.938 µM | 0.202 µM | 0.467 µM | 0.294 µM | 0.739 µM | 0.176 µM | 0.33 µM |
| COc1ccc2c(=O)c3cc([N+](=O)[O-])ccc3n(C)c2c1 | – | > 100 µM | – | > 100 µM | – | > 100 µM | – | > 100 µM | – | > 100 µM | – | > 100 µM | – | > 100 µM | – | > 100 µM | – | > 100 µM | – | > 100 µM |
| CN1c2ccccc2S(=O)(=O)n2c(COc3ccc(Cl)cc3)nnc21 | – | > 100 µM | – | > 100 µM | – | > 100 µM | – | > 100 µM | – | > 100 µM | – | > 100 µM | – | > 100 µM | – | > 100 µM | – | > 100 µM | – | > 100 µM |
| C[C@H]1CC(=O)C2=CCCC3(SCCCS3)[C@@H]2[C@H]1CO | – | > 100 µM | – | > 100 µM | – | > 100 µM | – | > 100 µM | – | > 100 µM | – | > 100 µM | – | > 100 µM | – | > 100 µM | – | > 100 µM | – | > 100 µM |
| COc1cc2c3c(n(C)c(=O)c2cc1OC)-c1cc2c(cc1/C3=C\CCCBr)OCO2 | > 100 µM | > 100 µM | 16.1 µM | > 54.8 µM | 13.2 µM | > 60.3 µM | 42 µM | > 100 µM | 26.9 µM | > 100 µM | > 41.5 µM | > 100 µM | 26.3 µM | 68.9 µM | 7.55 µM | 28.9 µM | 77.5 µM | > 100 µM | 6.35 µM | 16.8 µM |
| C#CCNC(=O)CC[C@]1(C)[C@H]2CC[C@@H]3[C@@H]([C@@](C)(O)CCC=C(C)C)CC[C@@]3(C)[C@]2(C)CC[C@H]1C(=C)C | 31.8 µM | > 100 µM | 22 µM | 57.1 µM | 20.1 µM | 49.5 µM | 9.73 µM | 27.4 µM | 31.2 µM | > 100 µM | 68 µM | > 100 µM | > 100 µM | > 100 µM | 22.5 µM | > 100 µM | 18.3 µM | 43.1 µM | 26.2 µM | 81.9 µM |

Reference: PubChem BioAssay (NCI)
